Assays:
TNF = TNF (Homo sapiens, UniProt P01375); assay: TNF-neutralization bioassay: TNF-induced cell death of LM cells (MTT); assay type: cell-based; settings: compound 50 μM, TNF 20 ng/ml, actinomycin D, LM cells, 24 hours
Protocol: First, the addition of recombinant TNF to mouse fibroblast LM cells induces cell death, and thus, by using the same, the TNF-neutralization bioassay was constructed. In other words, LM cells were pretreated with TNF (20 ng/ml) and the compounds synthesized in the above examples at various concentrations (5×10^4 cells/well), and a sensitizer actinomycin D ([…]) was added, and cultured in a CO2 incubator for 24 hours, and then the MTT assay was carried out. At this time, 10 μl of MTT (5 mg/ml stock) was added, reacted for 4 hours, and then dissolved in DMSO to measure the absorbance at 570 nm. First, the TNF cell death inhibition/neutralization action of TNF-target expected compounds at single concentration (50 or 10 μM) was measured. Second, IC50 values were determined by treating with the compounds having an excellent effect at different concentrations. The % inhibition of TNF was calculated using the following formula: % inhibition of TNF=(OD value of a group treated with TNF and compound−OD value of TNF treated group/(OD value of TNF untreated group−OD value of TNF treated group)×100.
IC50 values were statistically analyzed using Prism 6 (GraphPad) (IC50: 50% inhibitory concentration, CC50: 50% cytotoxic concentration).

TNF, sequence (P01375 77-233 limits assumed): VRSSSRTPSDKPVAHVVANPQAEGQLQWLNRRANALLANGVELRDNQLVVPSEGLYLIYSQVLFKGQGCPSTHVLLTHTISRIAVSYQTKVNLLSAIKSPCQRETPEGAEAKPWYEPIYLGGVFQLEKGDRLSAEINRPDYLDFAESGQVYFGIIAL

Row | SMILES | melting point | inhibition at 50 µM (TNF)
1 | O=C(O)c1c(-c2cccs2)oc2ccc(Br)cc2c1=O [Example 36, 2-(2-thiophenyl)-3-carboxy-6-bromo-(4H)-4-benzopyranone] | 210 to 212 °C | 27%
2 | Cc1ccc2oc(-c3ccc(F)c(F)c3)c(C(=O)O)c(=O)c2c1 [Example 66, 2-(3,4-difluorophenyl)-3-carboxy-6-methyl-(4H)-4-benzopyranone] | 222 to 223 °C | 37%
3 | Cc1ccc2c(=O)c(C(=O)O)c(-c3cccs3)oc2c1 [Example 32, 2-(2-thiophenyl)-3-carboxy-7-methyl-(4H)-4-benzopyranone] | 202 to 203 °C | 23.6%
4 | COc1cccc2c(=O)c(C(=O)O)c(-c3ccco3)oc12 [Example 2, 2-(2-furanyl)-3-carboxy-8-methoxy-(4H)-4-benzopyranone] | 195 to 197 °C | 46.6%
5 | Cc1cccc(-c2oc3cc(Cl)ccc3c(=O)c2C(=O)O)c1 [Example 28, 2-(3-methylphenyl)-3-carboxy-7-chloro-(4H)-4-benzopyranone] | 179 to 181 °C | 34.9%
6 | Cc1cccc2c(=O)c(C(=O)O)c(-c3cccc(F)c3)oc12 [Example 41, 2-(3-fluorophenyl)-3-carboxy-8-methyl-(4H)-4-benzopyranone] | 227 to 229 °C | 37.2%
7 | COc1ccc2c(=O)c(C(=O)O)c(-c3cccc(C)c3)oc2c1 [Example 6, 2-(3-methylphenyl)-3-carboxy-7-methoxy-(4H)-4-benzopyranone] | 183 to 184 °C | 46%
8 | O=C(O)c1c(-c2cccs2)oc2ccccc2c1=O [Example 15, 2-(2-thiophenyl)-3-carboxy-(4H)-4-benzopyranone] | 175 to 176 °C | 47.5%
9 | COc1ccc2c(=O)c(C(=O)O)c(-c3cccc(F)c3)oc2c1 [Example 1, 2-(3-fluorophenyl)-3-carboxy-7-methoxy-(4H)-4-benzopyranone] | 214 to 215 °C | 39.1%
10 | COc1ccc(-c2oc3ccccc3c(=O)c2C(=O)O)cc1OC [Example 8, 2-(3,4-dimethoxyphenyl)-3-carboxy-(4H)-4-benzopyranone] | 237 to 238 °C | 24.3%
11 | Cc1cccc(-c2oc3cc(C)ccc3c(=O)c2C(=O)O)c1 [Example 26, 2-(3-methylphenyl)-3-carboxy-7-methyl-(4H)-4-benzopyranone] | 152 to 155 °C | 45.1%
12 | Cc1ccc2oc(-c3ccc(Cl)cc3)c(C(=O)O)c(=O)c2c1 [Example 70, 2-(4-chlorophenyl)-3-carboxy-6-methyl-(4H)-4-benzopyranone] | 212 to 227 °C | 28.9%
13 | Cc1ccc2c(=O)c(C(=O)O)c(-c3ccco3)oc2c1 [Example 21, 2-(2-furanyl)-3-carboxy-7-methyl-(4H)-4-benzopyranone] | 217 to 218 °C | 55.2%
14 | Cc1ccc2oc(-c3cc(F)cc(F)c3)c(C(=O)O)c(=O)c2c1 [Example 49, 2-(3,5-difluorophenyl)-3-carboxy-6-methyl-(4H)-4-benzopyranone] | 238 to 240 °C | 37.7%
15 | COc1ccc2c(=O)c(C(=O)O)c(-c3ccccc3Cl)oc2c1 [Example 10, 2-(2-chlorophenyl)-3-carboxy-7-methoxy-(4H)-4-benzopyranone] | 130 to 132 °C | 45.6%
16 | COc1cccc2c(=O)c(C(=O)O)c(-c3cccc(C)c3)oc12 [Example 5, 2-(3-methylphenyl)-3-carboxy-8-methoxy-(4H)-4-benzopyranone] | 192 to 195 °C | 34.4%
17 | Cc1ccc2oc(-c3cccs3)c(C(=O)O)c(=O)c2c1 [Example 33, 2-(2-thiophenyl)-3-carboxy-6-methyl-(4H)-4-benzopyranone] | 153 to 155 °C | 20.7%
18 | Cc1cccc(-c2oc3c(C)cccc3c(=O)c2C(=O)O)c1 [Example 25, 2-(3-methylphenyl)-3-carboxy-8-methyl-(4H)-4-benzopyranone] | 209 to 211 °C | 41%
19 | Cc1ccc2oc(-c3cccc(F)c3)c(C(=O)O)c(=O)c2c1 [Example 43, 2-(3-fluorophenyl)-3-carboxy-6-methyl-(4H)-4-benzopyranone] | 214 to 215 °C | 19.4%

Further lines, with some results ahead:

Row | melting point | SMILES | inhibition at 50 µM (TNF)
20 | 203 to 204 °C | Cc1cccc2c(=O)c(C(=O)O)c(-c3ccc(F)c(F)c3)oc12 [Example 64, 2-(3,4-difluorophenyl)-3-carboxy-8-methyl-(4H)-4-benzopyranone] | 47.2%
21 | 205 to 207 °C | COc1ccc2oc(-c3ccco3)c(C(=O)O)c(=O)c2c1 [Example 4, 2-(2-furanyl)-3-carboxy-6-methoxy-(4H)-4-benzopyranone] | 24.6%
22 | 195 to 197 °C | Cc1ccc2oc(-c3ccco3)c(C(=O)O)c(=O)c2c1 [Example 22, 2-(2-furanyl)-3-carboxy-6-methyl-(4H)-4-benzopyranone] | 50.4%
23 | 226 to 227 °C | COc1ccc(-c2oc3cc(Cl)ccc3c(=O)c2C(=O)O)cc1OC [Example 39, 2-(3,4-dimethoxyphenyl)-3-carboxy-7-chloro-(4H)-4-benzopyranone] | 24.5%
24 | 202 to 204 °C | O=C(O)c1c(-c2cccs2)oc2ccc(Cl)cc2c1=O [Example 35, 2-(2-thiophenyl)-3-carboxy-6-chloro-(4H)-4-benzopyranone] | 28.1%
25 | 133 to 135 °C | O=C(O)c1c(-c2ccccc2Cl)oc2ccccc2c1=O [Example 11, 2-(2-chlorophenyl)-3-carboxy-(4H)-4-benzopyranone] | 60.6%
26 | 217 to 219 °C | Cc1cccc2c(=O)c(C(=O)O)c(-c3ccc(Cl)cc3)oc12 [Example 68, 2-(4-chlorophenyl)-3-carboxy-8-methyl-(4H)-4-benzopyranone] | 15.8%
27 | 227 to 228 °C | Cc1cccc2c(=O)c(C(=O)O)c(-c3ccco3)oc12 [Example 20, 2-(2-furanyl)-3-carboxy-8-methyl-(4H)-4-benzopyranone] | 59%
28 | 210 to 212 °C | COc1ccc(-c2oc3c(C)cccc3c(=O)c2C(=O)O)cc1OC [Example 37, 2-(3,4-dimethoxyphenyl)-3-carboxy-8-methyl-(4H)-4-benzopyranone] | 33.4%
29 | 192 to 195 °C | Cc1cccc(-c2oc3ccc(C)cc3c(=O)c2C(=O)O)c1 [Example 27, 2-(3-methylphenyl)-3-carboxy-6-methyl-(4H)-4-benzopyranone] | 65.2%
30 | 196 to 198 °C | COc1cccc2c(=O)c(C(=O)O)c(-c3cccs3)oc12 [Example 12, 2-(2-thiophenyl)-3-carboxy-8-methoxy-(4H)-4-benzopyranone] | 62.5%
31 | 200 to 201 °C | COc1ccc(-c2oc3cc(C)ccc3c(=O)c2C(=O)O)cc1OC [Example 38, 2-(3,4-dimethoxyphenyl)-3-carboxy-7-methyl-(4H)-4-benzopyranone] | 30.9%
32 | 205 to 207 °C | COc1ccc2c(=O)c(C(=O)O)c(-c3cccs3)oc2c1 [Example 13, 2-(2-thiophenyl)-3-carboxy-7-methoxy-(4H)-4-benzopyranone] | 55.9%
33 | 220 to 222 °C | Cc1ccc2c(=O)c(C(=O)O)c(-c3ccc(Cl)cc3)oc2c1 [Example 69, 2-(4-chlorophenyl)-3-carboxy-7-methyl-(4H)-4-benzopyranone] | 14.6%
34 | 218 to 220 °C | Cc1cccc(-c2oc3ccc(Cl)cc3c(=O)c2C(=O)O)c1 [Example 29, 2-(3-methylphenyl)-3-carboxy-6-chloro-(4H)-4-benzopyranone] | 45.7%
35 | 205 to 206 °C | Cc1cccc2c(=O)c(C(=O)O)c(-c3cccs3)oc12 [Example 31, 2-(2-thiophenyl)-3-carboxy-8-methyl-(4H)-4-benzopyranone] | 24.8%
36 | 120 to 122 °C | Cc1ccc2oc(-c3cccc(F)c3F)c(C(=O)O)c(=O)c2c1 [Example 54, 2-(2,3-difluorophenyl)-3-carboxy-6-methyl-(4H)-4-benzopyranone] | 26.5%
37 | 172 to 174 °C | COc1ccc2oc(-c3cccs3)c(C(=O)O)c(=O)c2c1 [Example 14, 2-(2-thiophenyl)-3-carboxy-6-methoxy-(4H)-4-benzopyranone] | 38.8%
38 | 202 to 204 °C | Cc1ccc2c(=O)c(C(=O)O)c(-c3ccc(F)c(F)c3)oc2c1 [Example 65, 2-(3,4-difluorophenyl)-3-carboxy-7-methyl-(4H)-4-benzopyranone] | 25.1%
39 | 220 to 222 °C | Cc1ccc2c(=O)c(C(=O)O)c(-c3cc(F)cc(F)c3)oc2c1 [Example 48, 2-(3,5-difluorophenyl)-3-carboxy-7-methyl-(4H)-4-benzopyranone] | 29%

Reference: US11504349B2, “Composition for preventing or treating TNF-related diseases, containing novel derivative as active ingredient, and method for inhibiting TNF activity by using same” (ILAB, priority 2017, dated 2022)
